Where two headings read alike, the source gives them in different places.
Columns and labels:
Type in all cases: cell-based, human
Target C mRNA = test: RT-qPCR splicing assay panel, Target C canonical junction (CJ) mRNA; conditions: Homo sapiens, canonical junction (CJ) mRNA, RT-qPCR panel, Table 4A; read-out: Target C, decrease in CJ mRNA levels, IC50
Summary of the method: (§1)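 A673 or K562 cells were treated 24 h at 37 °C with an 11-point 3-fold compound dilution series, top dose 10 uM final, DMSO ≤0.25%. Lysates went to one-step RT-qPCR for canonical (CJ) and alternative-exon (AJ) junctions; ΔCt vs GAPDH, GUSB or PPIA, normalized to DMSO, as 2^(-ΔΔCt).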

MYB mRNA = test: RT-qPCR splicing assay, MYB canonical (CJ) and alternative (AJ) junction mRNA; conditions: Homo sapiens; for AC50: read-out: MYB AJ (AC50, increase in AJ mRNA)
Summary of the method: as §1

SMN2 mRNA = test: RT-qPCR splicing assay panel, SMN2 canonical junction (CJ) mRNA; conditions: Homo sapiens, canonical junction (CJ) mRNA, RT-qPCR panel, Table 4A; read-out: SMN2, decrease in CJ mRNA levels, IC50
Summary of the method: as §1

HTT mRNA = test: RT-qPCR splicing assay, HTT canonical (CJ) and alternative (AJ) junction mRNA; conditions: Homo sapiens; for AC50: read-out: HTT AJ (AC50, increase in AJ mRNA)
Summary of the method: as §1

[1] = 24 h, Table 3A, A673 or K562 cells, 24 h treatment
[2] = 24 h, Table 3A, A673 or K562 cells, 24 h treatment, read-out: MYB CJ (IC50, decrease in CJ mRNA)
[3] = canonical junction (CJ) mRNA, RT-qPCR panel, Table 4A, read-out: MYB, decrease in CJ mRNA levels, IC50
[4] = 24 h, Table 3A, A673 or K562 cells, 24 h treatment, read-out: HTT CJ (IC50, decrease in CJ mRNA)
[5] = canonical junction (CJ) mRNA, RT-qPCR panel, Table 4A, read-out: HTT, decrease in CJ mRNA levels, IC50

Compound | IC50 (Target C mRNA) [µM] | AC50 (MYB mRNA; [1]) [µM] | IC50 (MYB mRNA; [2]) [µM] | IC50 (MYB mRNA; [3]) [µM] | IC50 (SMN2 mRNA) [µM] | AC50 (HTT mRNA; [1]) [µM] | IC50 (HTT mRNA; [4]) [µM] | IC50 (HTT mRNA; [5]) [µM]
Cn1ccc(-c2ccc(-c3ccc(N4CCC(NC5CCC5)C4)nn3)c(O)c2)nc1=O (stereo not drawn) [Compound 306] | 1 to 10 | 1 to 10 | 1 to 10 | 1 to 10 | 0.1 to 1 | 1 to 10 | 1 to 10 | 1 to 10
COc1cc(-c2ccc(-c3ccc(N4CCC(NC5CCC5)C4)nn3)c(O)c2)c(F)cn1 (stereo not drawn) [Compound 307] | > 10 | > 10 | > 10 | > 10 | 1 to 10 | 1 to 10 | 1 to 10 | 1 to 10
COc1cc(-c2cc(O)c(-c3ccc(N4CCC(C)(NC5CCC5)C4)nn3)cc2F)cnn1 (stereo not drawn) [Compound 310, 2-{6-[3-(cyclobutylamino)-3-methylpyrrolidin-1-yl]pyridazin-3-yl}-4-fluoro-5-(6-methoxypyridazin-4-yl)phenol] | 0.1 to 1 | 0.1 to 1 | 0.1 to 1 | 0.1 to 1 | < 0.1 | 0.1 to 1 | < 0.1 | < 0.1
COc1cc(-c2ccc(-c3ccc(N4CC[C@@H](N(CCF)C5CCC5)C4)nn3)c(O)c2)cnn1 [Compound 313, 2-{6-[(3R)-3-[cyclobutyl(2-fluoroethyl)amino]pyrrolidin-1-yl]pyridazin-3-yl}-5-(6-methoxypyridazin-4-yl)phenol] | > 10 | 1 to 10 | > 10 | > 10 | 0.1 to 1 | 1 to 10 | 0.1 to 1 | 0.1 to 1
CN(C1CCC1)[C@@H]1CCN(c2ccc(-c3cc(F)c(-c4cn[nH]c4)cc3O)nn2)C1 [Compound 314, 2-{6-[(3R)-3-[cyclobutyl(methyl)amino]pyrrolidin-1-yl]pyridazin-3-yl}-4-fluoro-5-(1H-pyrazol-4-yl)phenol] | 0.1 to 1 | 0.1 to 1 | 1 to 10 | 1 to 10 | < 0.1 | 0.1 to 1 | < 0.1 | < 0.1
Oc1cc(-n2cnnc2)c(F)cc1-c1ccc(N2CCC(NC3CCC3)C2)nn1 (stereo not drawn) [Compound 315] | > 10 | > 10 | > 10 | > 10 | 1 to 10 | 1 to 10 | 1 to 10 | 1 to 10

Reference: US20250333397A1 (REMIX THERAPEUTICS INC., priority 2021, published 2025)
